Laboratory results from ChEMBL document CHEMBL1201862, “PubChem BioAssay data set” (2004).
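Method: 48-hour compound exposure of cells in 96-well plates, five concentrations, linear interpolation of endpoints. GI50 = concentration required for 50% inhibition of growth.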 The source made the active and inactive calls. Cut-off read from the data, not from the text of the source: active = GI50 up to about 1.1 µM and inactive = higher.

Assays:
Experiment in all cases: NCI-60 cell line screen, 48 h
[1] = test system: SNB-78
[2] = test system: UACC-257
[3] = test system: Malme-3M
[4] = test system: SK-MEL-28
[5] = test system: HCC 2998
[6] = test system: SNB-19
[7] = test system: CAKI-1
[8] = test system: SN12C
[9] = test system: K562
[10] = test system: A498
[11] = test system: SK-MEL-5
[12] = test system: EKVX
[13] = test system: DMS-273
[14] = test system: HOP-92
[15] = test system: SK-MEL-2
[16] = test system: HOP-18
[17] = test system: OVCAR-4
[18] = test system: UACC-62
[19] = test system: COLO 205
[20] = test system: LOX IMVI
[21] = test system: NCI-H460
[22] = test system: SF-539
[23] = test system: HOP-62
[24] = test system: U-251
[25] = test system: A549
[26] = test system: DLD-1
[27] = test system: HCT-116
[28] = test system: 786-0
[29] = test system: SF-268
[30] = test system: TK-10
[31] = test system: MOLT-4
[32] = test system: SNB-75
[33] = test system: OVCAR-5
[34] = test system: OVCAR-3
[35] = test system: KM-20L2
[36] = test system: OVCAR-8
[37] = test system: IGROV-1
[38] = test system: LXFL 529
[39] = test system: CCRF-CEM
[40] = test system: KM12
[41] = test system: NCI-H522
[42] = test system: DMS-114
[43] = test system: SW-620
[44] = test system: HL-60
[45] = test system: M14
[46] = test system: NCI-H23
[47] = test system: RPMI-8226
[48] = test system: SF-295
[49] = test system: RXF 393
[50] = test system: HCT-15
[51] = test system: UO-31
[52] = test system: HT-29
[53] = test system: SK-OV-3
[54] = test system: ACHN
[55] = test system: SR
[56] = test system: NCI-H226
[57] = test system: M19-MEL

Structure (SMILES): O=C(c1ccccc1)C(c1ccccc1)C1(O)C(=O)Nc2c(Cl)ccc(Cl)c21 (stereo not drawn)
- GI50 [1]: 25.5 µM (inactive)
- GI50 [2]: 15.4 µM (inactive)
- GI50 [3]: 17.4 µM (inactive)
- GI50 [4]: 18.7 µM (inactive)
- GI50 [5]: 30.8 µM (inactive)
- GI50 [6]: 30.3 µM (inactive)
- GI50 [7]: 20.5 µM (inactive)
- GI50 [8]: 17.9 µM (inactive)
- GI50 [9]: 12.5 µM (inactive)
- GI50 [10]: 25.3 µM (inactive)
- GI50 [11]: 18.2 µM (inactive)
- GI50 [12]: 18.2 µM (inactive)
- GI50 [13]: 14.4 µM (inactive)
- GI50 [14]: 19.6 µM (inactive)
- GI50 [15]: 21.2 µM (inactive)
- GI50 [16]: 24.2 µM (inactive)
- GI50 [17]: 3.73 µM (inactive)
- GI50 [18]: 15.6 µM (inactive)
- GI50 [19]: 22.2 µM (inactive)
- GI50 [20]: 11.8 µM (inactive)
- GI50 [21]: 14.3 µM (inactive)
- GI50 [22]: 20.3 µM (inactive)
- GI50 [23]: 21.4 µM (inactive)
- GI50 [24]: 25.8 µM (inactive)
- GI50 [25]: 26.1 µM (inactive)
- GI50 [26]: 18.2 µM (inactive)
- GI50 [27]: 16.3 µM (inactive)
- GI50 [28]: 19.5 µM (inactive)
- GI50 [29]: 21.9 µM (inactive)
- GI50 [30]: 32.6 µM (inactive)
- GI50 [31]: 15.9 µM (inactive)
- GI50 [32]: 16.8 µM (inactive)
- GI50 [33]: 20.4 µM (inactive)
- GI50 [34]: 17.4 µM (inactive)
- GI50 [35]: 34.2 µM (inactive)
- GI50 [36]: 19.4 µM (inactive)
- GI50 [37]: 20.6 µM (inactive)
- GI50 [38]: 17.2 µM (inactive)
- GI50 [39]: 12.2 µM (inactive)
- GI50 [40]: 18.2 µM (inactive)
- GI50 [41]: 18.5 µM (inactive)
- GI50 [42]: 17 µM (inactive)
- GI50 [43]: 16.7 µM (inactive)
- GI50 [44]: 15.6 µM (inactive)
- GI50 [45]: 16.8 µM (inactive)
- GI50 [46]: 16.3 µM (inactive)
- GI50 [47]: 12.2 µM (inactive)
- GI50 [48]: 16.5 µM (inactive)
- GI50 [49]: 19.5 µM (inactive)
- GI50 [50]: 18.4 µM
- GI50 [51]: 20.2 µM (inactive)
- GI50 [52]: 19.9 µM (inactive)
- GI50 [53]: 30.8 µM (inactive)
- GI50 [54]: 16.9 µM (inactive)

Structure (SMILES): CC1(C)O[C@@H](CCl)C[C@@H](C#N)O1
- GI50 [55]: > 100 µM (inactive)
- GI50 [1]: > 100 µM (inactive)
- GI50 [2]: > 100 µM (inactive)
- GI50 [3]: > 100 µM (inactive)
- GI50 [4]: > 100 µM (inactive)
- GI50 [56]: > 100 µM (inactive)
- GI50 [5]: > 100 µM (inactive)
- GI50 [6]: > 100 µM (inactive)
- GI50 [7]: > 100 µM (inactive)
- GI50 [9]: > 100 µM (inactive)
- GI50 [10]: > 100 µM (inactive)
- GI50 [11]: > 100 µM (inactive)
- GI50 [12]: > 100 µM (inactive)
- GI50 [13]: > 100 µM (inactive)
- GI50 [14]: > 100 µM (inactive)
- GI50 [15]: > 100 µM (inactive)
- GI50 [16]: > 100 µM (inactive)
- GI50 [17]: > 100 µM (inactive)
- GI50 [18]: > 100 µM (inactive)
- GI50 [19]: > 100 µM (inactive)
- GI50 [20]: > 100 µM (inactive)
- GI50 [21]: > 100 µM (inactive)
- GI50 [22]: > 100 µM (inactive)
- GI50 [23]: > 100 µM (inactive)
- GI50 [24]: > 100 µM (inactive)
- GI50 [25]: > 100 µM (inactive)
- GI50 [26]: > 100 µM (inactive)
- GI50 [27]: > 100 µM (inactive)
- GI50 [28]: > 100 µM (inactive)
- GI50 [29]: > 100 µM (inactive)
- GI50 [30]: > 100 µM (inactive)
- GI50 [31]: > 100 µM (inactive)
- GI50 [32]: > 100 µM (inactive)
- GI50 [33]: > 100 µM (inactive)
- GI50 [34]: > 100 µM (inactive)
- GI50 [35]: > 100 µM (inactive)
- GI50 [36]: > 100 µM (inactive)
- GI50 [37]: > 100 µM (inactive)
- GI50 [39]: > 100 µM (inactive)
- GI50 [57]: > 100 µM (inactive)
- GI50 [40]: > 100 µM (inactive)
- GI50 [41]: > 100 µM (inactive)
- GI50 [42]: > 100 µM (inactive)
- GI50 [43]: > 100 µM (inactive)
- GI50 [44]: > 100 µM (inactive)
- GI50 [45]: > 100 µM (inactive)
- GI50 [46]: > 100 µM (inactive)
- GI50 [47]: > 100 µM (inactive)
- GI50 [48]: > 100 µM (inactive)
- GI50 [49]: > 100 µM (inactive)
- GI50 [51]: > 100 µM (inactive)
- GI50 [52]: > 100 µM (inactive)
- GI50 [53]: > 100 µM (inactive)
- GI50 [54]: > 100 µM (inactive)
